Source: ChEMBL document CHEMBL3045380, “Effects of a prenyl-baicalein derivative on ER (+) MCF-7 and ER () MDA-MB-231 breast tumor cell lines” (2012)
The source made the active and inactive calls. The calls are words filed in the database; no cut-off is given here.

Tests used:
MCF7 [1] = experiment: Inhibition of ER in Homo sapiens (human) MCF-7 cells grown in steroid free RPMI medium assessed as cell death at 3.13 to 100 uM after 72 hr by SRB assay; format: functional, cell-based
MCF-7 [2] = experiment: Antagonist activity at estrogen receptor in Homo sapiens (human) MCF-7 cells assessed as potentiation of fluvestrant-induced reduction in [3H]thymidine incorporation at 3.13 to 6.25 uM aftestrogen receptor 72 hr by liquid scintillation counting; format: cell-based
MDA-MB-231 [3] = experiment: Cytotoxicity against Homo sapiens (human) ER-deficient MDA-MB-231 cells grown in steroid free RPMI medium at 3.13 to 100 uM after 72 hr by SRB assay; format: functional, cell-based
MCF-7 [4] = experiment: Agonist activity at estrogen receptor in Homo sapiens (human) MCF-7 cells grown in stestrogen receptoroid free RPMI medium assessed as incorporation of [3H]thymidine at 0.1 to 0.2 uM aftestrogen receptor 72 hr by liquid scintillation counting; format: cell-based
MCF-7 [5] = experiment: Antagonist activity at estrogen receptor in Homo sapiens (human) MCF-7 cells assessed as potentiation of 4-hydroxytamoxifen-induced reduction in [3H]thymidine incorporation aftestrogen receptor 72 hr by liquid scintillation counting; format: cell-based
MDA-MB-231 [6] = experiment: Cytotoxicity against Homo sapiens (human) ER-deficient MDA-MB-231 cells grown in RPMI medium at 3.13 to 100 uM after 48 hr by SRB assay; format: functional, cell-based
MDA-MB-231 [7] = experiment: Cytotoxicity against Homo sapiens (human) ER-deficient MDA-MB-231 cells after 48 hr by SRB assay; format: functional
MDA-MB-231 [8] = experiment: Antiproliferative activity against Homo sapiens (human) ER-deficient MDA-MB-231 cells grown in steroid free RPMI medium assessed as inhibition of [3H]thymidine incorporation at 3.13 to 100 uM after 72 hr by liquid scintillation counting; format: functional, cell-based
MCF-7 [9] = experiment: Inhibition of estrogen receptor in Homo sapiens (human) MCF-7 cells grown in RPMI medium assessed as cell death at 3.13 to 100 uM aftestrogen receptor 48 hr by SRB assay; format: cell-based
MCF-7 [10] = experiment: Antagonist activity at estrogen receptor in Homo sapiens (human) MCF-7 cells grown in stestrogen receptoroid free RPMI medium assessed as inhibition of [3H]thymidine incorporation at 3.13 to 100 uM aftestrogen receptor 72 hr by liquid scintillation counting; format: cell-based
MCF-7 [11] = experiment: Antagonist activity at estrogen receptor in Homo sapiens (human) MCF-7 cells assessed as inhibition of 17betaestradiol-induced [3H]thymidine incorporation at 0.1 to 0.78 uM aftestrogen receptor 72 hr by liquid scintillation counting; format: cell-based
MCF7 [12] = experiment: Cytotoxicity against Homo sapiens (human) MCF-7 cells expressing ER after 48 hr by SRB assay; format: functional

Q: What does the source list for `CC(C)=CCOc1cc2oc(-c3ccccc3)cc(=O)c2c(O)c1O`?
A: inhibition (MCF7 [1]): Active; Activity (MCF-7 [2]): Active; Activity (MDA-MB-231 [3]): Active; Activity (MCF-7 [4]): Active; Activity (MCF-7 [5]): Dose-dependent effect; Activity (MDA-MB-231 [6]): Active; Activity (MDA-MB-231 [7]): Dose-dependent effect; GI50 (MDA-MB-231 [7]; MDA-MB-231, 48 h): 29.7 µM; Activity (MDA-MB-231 [8]): Active; inhibition (MCF-7 [9]): inactive; inhibition (MCF-7 [10]): Active; inhibition (MCF-7 [11]): Active; Activity (MCF7 [12]): Dose-dependent effect; GI50 (MCF7 [12]; MCF7, 48 h): 11.2 µM
